The text below walks through data of BindingDB's records for doi:10.1021/jm701049p (Seoul National University, 2008).

The assay has as its target Transient receptor potential cation channel subfamily V member 1 (Rattus norvegicus, UniProt O35433). Briefly: Competition Binding Assay and Inhibition of Ca2+ Uptake Assay. To be noted: pH 7.4, 37 °C. The protocol: Binding assay mixtures were set up and contained [3H] RTX, various concentrations of competing ligands, and rVR1-transfected CHO cells. Nonspecific binding was determined in the presence of 100 nM nonradioactive RTX. After the binding reaction, membrane-bound RTX was separated from the free by centrifugation, and the radioactivity was determined by scintillation counting. Equilibrium binding parameters (Ki, Bmax, and cooperativity) were determined by fitting the Hill equation to the measured values with the aid of the program Origin 6.0.

Chain of Transient receptor potential cation channel subfamily V member 1 (O35433 whole entry): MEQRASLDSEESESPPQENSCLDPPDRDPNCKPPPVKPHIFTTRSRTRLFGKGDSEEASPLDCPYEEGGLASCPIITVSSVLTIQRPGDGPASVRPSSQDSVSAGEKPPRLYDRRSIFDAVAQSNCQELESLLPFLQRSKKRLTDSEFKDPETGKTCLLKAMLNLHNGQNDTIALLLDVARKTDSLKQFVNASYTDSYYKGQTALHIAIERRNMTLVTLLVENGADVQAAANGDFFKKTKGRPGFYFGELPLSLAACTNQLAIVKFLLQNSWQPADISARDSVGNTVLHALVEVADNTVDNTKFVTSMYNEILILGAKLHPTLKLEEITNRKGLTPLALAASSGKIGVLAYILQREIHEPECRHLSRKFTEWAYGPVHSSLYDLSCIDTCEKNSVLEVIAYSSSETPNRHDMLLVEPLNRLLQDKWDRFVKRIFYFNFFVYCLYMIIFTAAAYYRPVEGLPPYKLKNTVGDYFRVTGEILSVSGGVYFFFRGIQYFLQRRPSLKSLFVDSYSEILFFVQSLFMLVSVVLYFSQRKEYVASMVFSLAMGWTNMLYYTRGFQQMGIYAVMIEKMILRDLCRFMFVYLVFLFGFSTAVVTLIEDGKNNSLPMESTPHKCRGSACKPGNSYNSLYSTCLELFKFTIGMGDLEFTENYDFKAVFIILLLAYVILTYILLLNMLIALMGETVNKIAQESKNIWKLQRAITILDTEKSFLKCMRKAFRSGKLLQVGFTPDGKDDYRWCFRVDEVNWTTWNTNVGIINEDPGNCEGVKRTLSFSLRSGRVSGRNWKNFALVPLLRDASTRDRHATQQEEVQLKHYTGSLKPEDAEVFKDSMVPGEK

As for `C[C@H](C(=O)NC[C@H](COC(=O)C(C)(C)C)Cc1ccc(C(C)(C)C)cc1)c1ccc(NS(C)(=O)=O)c(F)c1` [(2R)-2-[(4-tert-butylphenyl)methyl]-3-[(2S)-2-(3-fluoro-4-methanesulfonamidophenyl)propanamido]propyl 2,2-dimethylpropanoate], affinity was put at a Ki of 0.58 nM.

Regarding `Cc1ccc(CC(CNC(=S)NCc2ccc(NS(C)(=O)=O)c(F)c2)COC(=O)C(C)(C)C)cc1C` (stereo not drawn), affinity was put at a Ki of 7.8 nM.

As for `CC(C)(C)C(=O)OCC(CNC(=S)NCc1ccc(NS(C)(=O)=O)c(F)c1)Cc1ccc(C(C)(C)C)cc1` (stereo not drawn), the Ki came out at 52 nM.

Compound `C[C@@H](C(=O)NC[C@@H](COC(=O)C(C)(C)C)Cc1ccc(C(C)(C)C)cc1)c1ccc(NS(C)(=O)=O)c(F)c1` [(2S)-2-[(4-tert-butylphenyl)methyl]-3-[(2R)-2-(3-fluoro-4-methanesulfonamidophenyl)propanamido]propyl 2,2-dimethylpropanoate] had a Ki of 142 nM.

Compound `C=C(C)[C@]12C[C@@H](C)[C@@]34OC(Cc5ccccc5)(O[C@@H]1[C@@H]3C=C(COC(=O)Cc1cc(I)c(O)c(OC)c1)C[C@]1(O)C(=O)C(C)=C[C@@H]41)O2` [[(1R,2R,6R,10S,11R,15R,17R)-13-benzyl-6-hydroxy-4,17-dimethyl-5-oxo-15-(prop-1-en-2-yl)-12,14,18-trioxapentacyclo[11.4.1.0^{1,10}.0^{2,6}.0^{11,15}]octadeca-3,8-dien-8-yl]methyl 2-(4-hydroxy-3-iodo-5-methoxyphenyl)acetate] displayed a Ki of 12.2 nM. Also, the Ki (read-out: Ki) came to 0.61 nM.

Compound `Cc1ccc(CC(CNC(=O)C2(c3ccc(NS(C)(=O)=O)c(F)c3)CC2)COC(=O)C(C)(C)C)cc1C` (stereo not drawn) [2-[(3,4-dimethylphenyl)methyl]-3-{[1-(3-fluoro-4-methanesulfonamidophenyl)cyclopropyl]formamido}propyl 2,2-dimethylpropanoate] gave a Ki of 567 nM.

The compound `C[C@H](C(=O)NC[C@H](COC(=O)C(C)(C)C)Cc1ccccc1)c1ccc(NS(C)(=O)=O)c(F)c1` [(2R)-2-benzyl-3-[(2S)-2-(3-fluoro-4-methanesulfonamidophenyl)propanamido]propyl 2,2-dimethylpropanoate] registered a Ki of 8.56 nM.

In the case of `C[C@@H](C(=O)NC[C@H](COC(=O)C(C)(C)C)Cc1ccccc1)c1ccc(NS(C)(=O)=O)c(F)c1` [(2R)-2-benzyl-3-[(2R)-2-(3-fluoro-4-methanesulfonamidophenyl)propanamido]propyl 2,2-dimethylpropanoate], the Ki amounted to 98 nM.

`COc1cc(C(C)C(=O)NCC(COC(=O)C(C)(C)C)Cc2ccc(C)c(C)c2)ccc1NS(C)(=O)=O` (stereo not drawn) [2-[(3,4-dimethylphenyl)methyl]-3-[2-(4-methanesulfonamido-3-methoxyphenyl)propanamido]propyl 2,2-dimethylpropanoate]: the Ki came out at 13.6 nM.

Consider `Cc1ccc(CC(CNC(=O)C(C)c2ccc(NS(C)(=O)=O)cc2)COC(=O)C(C)(C)C)cc1C` (stereo not drawn) [2-[(3,4-dimethylphenyl)methyl]-3-[2-(4-methanesulfonamidophenyl)propanamido]propyl 2,2-dimethylpropanoate], for which the Ki was 38 nM.

Compound `Cc1ccc(CC(CNC(=O)C(C)c2ccc(NS(C)(=O)=O)c(F)c2)COC(=O)C(C)(C)C)cc1C` (stereo not drawn) [2-[(3,4-dimethylphenyl)methyl]-3-[2-(3-fluoro-4-methanesulfonamidophenyl)propanamido]propyl 2,2-dimethylpropanoate] yielded a Ki of 10.8 nM.

`Cc1ccc(CC(CNC(=O)C2(c3ccc(NS(C)(=O)=O)cc3)CC2)COC(=O)C(C)(C)C)cc1C` (stereo not drawn) [2-[(3,4-dimethylphenyl)methyl]-3-{[1-(4-methanesulfonamidophenyl)cyclopropyl]formamido}propyl 2,2-dimethylpropanoate] came in with a Ki of 197 nM.

`Cc1ccc(CC(CNC(=O)C(C)c2ccc(NS(C)(=O)=O)c(Cl)c2)COC(=O)C(C)(C)C)cc1C` (stereo not drawn) [3-[2-(3-chloro-4-methanesulfonamidophenyl)propanamido]-2-[(3,4-dimethylphenyl)methyl]propyl 2,2-dimethylpropanoate] yielded an inhibition constant (Ki) of 36 nM.

For the compound `C[C@H](C(=O)NC[C@@H](COC(=O)C(C)(C)C)Cc1ccc(C(C)(C)C)cc1)c1ccc(NS(C)(=O)=O)c(F)c1` [(2S)-2-[(4-tert-butylphenyl)methyl]-3-[(2S)-2-(3-fluoro-4-methanesulfonamidophenyl)propanamido]propyl 2,2-dimethylpropanoate], the Ki came to 10.9 nM.

In turn, `C[C@@H](C(=O)NC[C@H](COC(=O)C(C)(C)C)Cc1ccc(C(C)(C)C)cc1)c1ccc(NS(C)(=O)=O)c(F)c1` [(2R)-2-[(4-tert-butylphenyl)methyl]-3-[(2R)-2-(3-fluoro-4-methanesulfonamidophenyl)propanamido]propyl 2,2-dimethylpropanoate] returned a Ki of 30.3 nM.

The compound `COc1cc(C(C)(C)C(=O)NCC(COC(=O)C(C)(C)C)Cc2ccc(C)c(C)c2)ccc1NS(C)(=O)=O` (stereo not drawn) [2-[(3,4-dimethylphenyl)methyl]-3-[2-(4-methanesulfonamido-3-methoxyphenyl)-2-methylpropanamido]propyl 2,2-dimethylpropanoate] displayed a Ki of 133 nM.

`Cc1ccc(CC(CNC(=O)C(C)(C)c2ccc(NS(C)(=O)=O)c(F)c2)COC(=O)C(C)(C)C)cc1C` (stereo not drawn) [2-[(3,4-dimethylphenyl)methyl]-3-[2-(3-fluoro-4-methanesulfonamidophenyl)-2-methylpropanamido]propyl 2,2-dimethylpropanoate] gave a Ki of 65 nM.

`Cc1ccc(CC(CNC(=O)C(C)(C)c2ccc(NS(C)(=O)=O)cc2)COC(=O)C(C)(C)C)cc1C` (stereo not drawn) [2-[(3,4-dimethylphenyl)methyl]-3-[2-(4-methanesulfonamidophenyl)-2-methylpropanamido]propyl 2,2-dimethylpropanoate] yielded a Ki of 104 nM.

`C[C@H](C(=O)NC[C@@H](COC(=O)C(C)(C)C)Cc1ccccc1)c1ccc(NS(C)(=O)=O)c(F)c1` [(2S)-2-benzyl-3-[(2S)-2-(3-fluoro-4-methanesulfonamidophenyl)propanamido]propyl 2,2-dimethylpropanoate]: affinity was put at a Ki of 10 nM.

`CC(C(=O)NCC(COC(=O)C(C)(C)C)Cc1ccc(C(C)(C)C)cc1)c1ccc(NS(C)(=O)=O)c(Cl)c1` (stereo not drawn) [2-[(4-tert-butylphenyl)methyl]-3-[2-(3-chloro-4-methanesulfonamidophenyl)propanamido]propyl 2,2-dimethylpropanoate]: the inhibitory constant (Ki) was 12.3 nM.

Regarding `CC(C)(C)C(=O)OCC(CNC(=O)Cc1ccc(NS(C)(=O)=O)c(F)c1)Cc1ccc(C(C)(C)C)cc1` (stereo not drawn), the Ki is 440 nM.

Take `CC(C(=O)NCC(COC(=O)C(C)(C)C)Cc1ccc(C(C)(C)C)cc1)c1ccc(NS(C)(=O)=O)c(F)c1` (stereo not drawn) [diastereomeric mixture]: affinity was put at a Ki of 3.24 nM.

Regarding `C[C@H](C(=O)NC[C@H](COC(=O)C(C)(C)C)Cc1ccc(C(C)(C)C)cc1)c1ccc(NS(C)(=O)=O)c(Cl)c1` [(2R)-2-[(4-tert-butylphenyl)methyl]-3-[(2S)-2-(3-chloro-4-methanesulfonamidophenyl)propanamido]propyl 2,2-dimethylpropanoate], the Ki was 5.2 nM.

In the case of `CC(C(=O)NCC(COC(=O)C(C)(C)C)Cc1ccc(C(C)(C)C)cc1)c1ccc(NS(C)(=O)=O)cc1` (stereo not drawn) [2-[(4-tert-butylphenyl)methyl]-3-[2-(4-methanesulfonamidophenyl)propanamido]propyl 2,2-dimethylpropanoate], affinity was put at a Ki of 52 nM.

As to `C[C@H](C(=O)NC[C@@H](COC(=O)C(C)(C)C)Cc1ccc(C(C)(C)C)cc1)c1ccc(NS(C)(=O)=O)c(Cl)c1` [(2S)-2-[(4-tert-butylphenyl)methyl]-3-[(2S)-2-(3-chloro-4-methanesulfonamidophenyl)propanamido]propyl 2,2-dimethylpropanoate], the affinity corresponds to a Ki of 12.1 nM.

Consider `C[C@@H](C(=O)NC[C@@H](COC(=O)C(C)(C)C)Cc1ccccc1)c1ccc(NS(C)(=O)=O)c(F)c1` [(2S)-2-benzyl-3-[(2R)-2-(3-fluoro-4-methanesulfonamidophenyl)propanamido]propyl 2,2-dimethylpropanoate], for which the Ki turned out to be 205 nM.

Regarding `COc1cc(C2(C(=O)NCC(COC(=O)C(C)(C)C)Cc3ccc(C)c(C)c3)CC2)ccc1NS(C)(=O)=O` (stereo not drawn) [2-[(3,4-dimethylphenyl)methyl]-3-{[1-(4-methanesulfonamido-3-methoxyphenyl)cyclopropyl]formamido}propyl 2,2-dimethylpropanoate], the affinity corresponds to a Ki of 118 nM.
